This test has as its target T1, F508delCFTR (Homo sapiens, UniProt P13569, DEL508-508).
T1 construct: expressed in transfected cells; host or cells: CFBE41o- (CFBE41o-F508delCFTR-HRP), doxycycline-inducible
Kind of test: Cell Surface Expression-Horse Radish Peroxidase (CSE-HRP) assay. The class given is cell-based. As to conditions: CFBE41o-F508delCFTR-HRP cells; for EC50: cell surface expression, luminescence readout, 18-24 hours at 33° C., highest concentration tested 20 μM, 8-point curve; for Maximum % activity: maximum at any tested concentration, normalized to on-plate positive control (3 μM) and DMSO. From the text:
Cell Surface Expression-Horse Radish Peroxidase (CSE-HRP) Assay:
A cellular assay for measuring the F508delCFTR cell surface expression after correction with test compounds was developed in human lung derived epithelial cell line (CFBE41o-) (Veit G et al, (2012) Mol Biol Cell. 23(21): 4188-4202). This was achieved by expressing the F508delCFTR mutation along with a horseradish peroxidase (HRP) in the fourth exofacial loop and then measuring the HRP activity using luminescence readout from these cells, CFBE41o-F508delCFTR-HRP, that were incubated overnight with the test corrector compounds. Briefly, for this primary assay, the CFBE41o-F508delCFTR-HRP cells were plated in 384-well plates (Greiner Bio-one; Cat 781080) at 4,000 cells/well along with 0.5 μg/mL doxycycline to induce the F508delCFTR-HRP expression and further incubated at 37° C., 5% CO2 for 72 hours. The test compounds were then added at the required concentrations and further incubated for 18-24 hours at 33° C. The highest concentration tested was 20 μM with an 8-point concentration response curve using a 3-fold dilution. Three replicate plates were run to determine one EC50. All plates contained negative controls (dimethyl sulfoxide, DMSO) and positive controls (3 μM of 3-[(2R,4R)-4-({[1-(2,2-difluoro-1,3-benzodioxol-5-yl)cyclopropyl]carbonyl}amino)-7-methoxy-3,4-dihydro-2H-chromen-2-yl]benzoic acid) as well as on-plate concentration response of the positive control. Post incubation, the plates were washed 5× times with Dulbecco's phosphate buffered saline (DPBS), followed by the addition of the HRP substrate, luminol (50 μL), and measuring the HRP activity using luminescence readout on EnVision® Multilabel Plate Reader (Perkin Elmer; product number 2104-0010). The raw counts from the experiment are analyzed using Accelrys® Assay Explorer v3.3.
Z′ greater than 0.5 was used as passing quality control criteria for the plates.
The Z′ is defined as: 1−[3*SDPositive Control+3*SDNegative Control/Absolute(MeanPositive Control−MeanNegative Control)],
wherein “SD” is standard deviation.
The % activity measured at each of the 8 test concentrations of the test compound was normalized to the on-plate positive control using the following formula: % activity=[(test compound response−DMSO response)/(positive control response−DMSO response)]*100
The maximum % activity achieved for the test compound at any tested concentration is presented in Table 1 along with the EC50 calculated using the following general sigmoidal curve with variable Hill slope equation (described as Model 42 in the Accelrys® Assay Explorer v3.3 software): y=(a−d)/(1+(x/c)^b)+d General sigmoidal curve with concentration, response, top, bottom, EC50 and Hill slope.
This model describes a sigmoidal curve with an adjustable baseline, a. The equation can be used to fit curves where response is either increasing or decreasing with respect to the independent variable, “x”.
“x” is a concentration of drug under test.
“a” is the maximum response, and “d” is the minimum response
“c” is the inflection point (EC50) for the curve. That is, “y” is halfway between the lower and upper asymptotes when x=c.
“b” is the slope-factor or Hill coefficient. The sign of b is positive when the response increases with increasing dose and is negative when the response decreases with increasing dose (inhibition).

The record followed here is patent US9567322B2, “Substituted tetrahydropyrans and method of use” (AbbVie S.á.r.l., priority 2014, dated 2017).

What is called EC50 is the concentration giving half of the maximal effect. Low values mean higher potency in that assay, high ones lower potency in that assay.

T1 sequence (P13569 with tags, fused parts or gaps DEL508-508): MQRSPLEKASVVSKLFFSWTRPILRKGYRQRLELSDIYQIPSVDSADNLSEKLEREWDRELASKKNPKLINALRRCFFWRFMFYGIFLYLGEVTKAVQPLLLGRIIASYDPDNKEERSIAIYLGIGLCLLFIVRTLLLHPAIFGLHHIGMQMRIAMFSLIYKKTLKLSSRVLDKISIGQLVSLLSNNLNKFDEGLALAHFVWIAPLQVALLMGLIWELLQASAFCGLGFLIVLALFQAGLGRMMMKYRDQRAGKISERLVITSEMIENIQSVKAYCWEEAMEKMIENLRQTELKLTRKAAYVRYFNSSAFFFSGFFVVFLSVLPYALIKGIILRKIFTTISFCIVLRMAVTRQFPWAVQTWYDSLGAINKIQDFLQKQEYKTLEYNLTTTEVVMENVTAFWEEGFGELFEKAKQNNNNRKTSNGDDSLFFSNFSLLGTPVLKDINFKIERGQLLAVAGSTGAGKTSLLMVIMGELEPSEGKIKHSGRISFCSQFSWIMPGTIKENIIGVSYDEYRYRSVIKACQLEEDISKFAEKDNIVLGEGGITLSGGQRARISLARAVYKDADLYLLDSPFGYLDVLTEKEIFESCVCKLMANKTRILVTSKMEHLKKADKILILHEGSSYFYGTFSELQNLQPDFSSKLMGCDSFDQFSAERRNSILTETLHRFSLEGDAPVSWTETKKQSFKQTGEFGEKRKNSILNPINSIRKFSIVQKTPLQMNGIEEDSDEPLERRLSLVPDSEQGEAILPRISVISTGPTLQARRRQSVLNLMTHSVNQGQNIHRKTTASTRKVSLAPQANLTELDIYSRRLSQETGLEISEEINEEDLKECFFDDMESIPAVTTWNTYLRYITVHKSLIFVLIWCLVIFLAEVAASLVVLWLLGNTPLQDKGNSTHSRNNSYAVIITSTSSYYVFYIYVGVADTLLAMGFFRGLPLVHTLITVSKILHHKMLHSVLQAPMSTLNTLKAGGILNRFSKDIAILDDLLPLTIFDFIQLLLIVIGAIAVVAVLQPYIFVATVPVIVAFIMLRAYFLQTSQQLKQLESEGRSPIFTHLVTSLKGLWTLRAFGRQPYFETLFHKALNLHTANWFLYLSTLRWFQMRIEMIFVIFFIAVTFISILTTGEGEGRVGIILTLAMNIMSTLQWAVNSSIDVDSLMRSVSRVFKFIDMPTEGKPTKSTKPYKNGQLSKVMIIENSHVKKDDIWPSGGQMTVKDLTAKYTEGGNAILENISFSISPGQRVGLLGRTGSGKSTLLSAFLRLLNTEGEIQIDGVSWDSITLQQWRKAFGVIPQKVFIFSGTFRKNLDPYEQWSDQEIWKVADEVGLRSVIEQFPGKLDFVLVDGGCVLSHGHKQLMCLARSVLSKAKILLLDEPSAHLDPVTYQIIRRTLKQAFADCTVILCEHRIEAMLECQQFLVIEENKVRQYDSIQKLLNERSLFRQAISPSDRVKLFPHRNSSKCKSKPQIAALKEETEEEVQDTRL

With `O=C(N[C@H]1CCO[C@@H](c2ccccc2)C1)C1(c2ccc3c(c2)OC(F)(F)O3)CC1` (racemic) [Example 1, rac-1-(2,2-difluoro-1,3-benzodioxol-5-yl)-N-[(2R,4S)-2-phenyltetrahydro-2H-pyran-4-yl]cyclopropanecarboxamide], a half-maximal effect (EC50) was put at 1.7 µM and the Maximum % activity is 62%.

As to `O=C(O)c1cccc([C@H]2C[C@@H](NC(=O)C3(c4ccc5c(c4)OC(F)(F)O5)CC3)CCO2)c1` (racemic) [Example 2, rac-3-[(2R,4S)-4-({[1-(2,2-difluoro-1,3-benzodioxol-5-yl)cyclopropyl]carbonyl}amino)tetrahydro-2H-pyran-2-yl]benzoic acid], the EC50 worked out at 0.85 µM and the Maximum % activity was 71%.

For the compound `COC(=O)c1cccc([C@H]2C[C@@H](NC(=O)C3(c4ccc5c(c4)OC(F)(F)O5)CC3)CCO2)c1` (racemic) [Example 3, methyl rac-3-[(2R,4S)-4-({[1-(2,2-difluoro-1,3-benzodioxol-5-yl)cyclopropyl]carbonyl}amino)tetrahydro-2H-pyran-2-yl]benzoate], it took 1.41 µM to reach a half-maximal effect (EC50) and the Maximum % activity is given as 64%.

As to `COC(=O)c1cccc([C@H]2C[C@H](NC(=O)C3(c4ccc5c(c4)OC(F)(F)O5)CC3)CCO2)c1` (racemic) [Example 4, methyl rac-3-[(2R,4R)-4-({[1-(2,2-difluoro-1,3-benzodioxol-5-yl)cyclopropyl]carbonyl}amino)tetrahydro-2H-pyran-2-yl]benzoate], the EC50 came out at 3.11 µM and the Maximum % activity was found to be 23%.

For the compound `O=C(O)c1cccc([C@H]2C[C@H](NC(=O)C3(c4ccc5c(c4)OC(F)(F)O5)CC3)CCO2)c1` (racemic) [Example 5, rac-3-[(2R,4R)-4-({[1-(2,2-difluoro-1,3-benzodioxol-5-yl)cyclopropyl]carbonyl}amino)tetrahydro-2H-pyran-2-yl]benzoic acid], the half-maximal effective concentration (EC50) is at least 20 µM and the Maximum % activity is given as 13%.

In the case of `O=C(N[C@@H]1CCO[C@@H](c2cccc(CO)c2)C1)C1(c2ccc3c(c2)OC(F)(F)O3)CC1` (racemic) [Example 6, rac-1-(2,2-difluoro-1,3-benzodioxol-5-yl)-N-{(2R,4R)-2-[3-(hydroxymethyl)phenyl]tetrahydro-2H-pyran-4-yl}cyclopropanecarboxamide], it took 5.15 µM to reach a half-maximal effect (EC50) and the Maximum % activity worked out at 32%.

Regarding `CC(C)(O)c1cccc([C@H]2C[C@H](NC(=O)C3(c4ccc5c(c4)OC(F)(F)O5)CC3)CCO2)c1` (racemic) [Example 7, rac-1-(2,2-difluoro-1,3-benzodioxol-5-yl)-N-{(2R,4R)-2-[3-(2-hydroxypropan-2-yl)phenyl]tetrahydro-2H-pyran-4-yl}cyclopropanecarboxamide], the concentration giving a half-maximal response (EC50) stood at 5.56 µM and the Maximum % activity is recorded as 27%.

Regarding `CC(=O)c1cccc([C@H]2C[C@@H](NC(=O)C3(c4ccc5c(c4)OC(F)(F)O5)CC3)CCO2)c1` (racemic) [Example 8, rac-N-[(2R,4S)-2-(3-acetylphenyl)tetrahydro-2H-pyran-4-yl]-1-(2,2-difluoro-1,3-benzodioxol-5-yl)cyclopropanecarboxamide], the concentration giving a half-maximal response (EC50) was found to be 1.39 µM and the Maximum % activity amounted to 57%.

Consider `O=C(N[C@H]1CCO[C@@H](c2cccc(CO)c2)C1)C1(c2ccc3c(c2)OC(F)(F)O3)CC1` (racemic) [Example 9, rac-1-(2,2-difluoro-1,3-benzodioxol-5-yl)-N-{(2R,4S)-2-[3-(hydroxymethyl)phenyl]tetrahydro-2H-pyran-4-yl}cyclopropanecarboxamide], for which the half-maximal effective concentration (EC50) came out at 2.26 µM and the Maximum % activity is recorded as 61%.

As for `CC(C)(O)c1cccc([C@H]2C[C@@H](NC(=O)C3(c4ccc5c(c4)OC(F)(F)O5)CC3)CCO2)c1` (racemic) [Example 10, rac-1-(2,2-difluoro-1,3-benzodioxol-5-yl)-N-{(2R,4S)-2-[3-(2-hydroxypropan-2-yl)phenyl]tetrahydro-2H-pyran-4-yl}cyclopropanecarboxamide], the EC50 amounted to 2.09 µM and the Maximum % activity turned out to be 58%.

Consider `COC(=O)c1ccccc1[C@H]1C[C@@H](NC(=O)C2(c3ccc4c(c3)OC(F)(F)O4)CC2)CCO1` (racemic) [Example 11, methyl rac-2-[(2R,4S)-4-({[1-(2,2-difluoro-1,3-benzodioxol-5-yl)cyclopropyl]carbonyl}amino)tetrahydro-2H-pyran-2-yl]benzoate], for which the midpoint of the response, the EC50, lay at 0.9 µM and the Maximum % activity was 116%.

With `O=C(O)c1ccccc1[C@H]1C[C@@H](NC(=O)C2(c3ccc4c(c3)OC(F)(F)O4)CC2)CCO1` (racemic) [Example 12, rac-2-[(2R,4S)-4-({[1-(2,2-difluoro-1,3-benzodioxol-5-yl)cyclopropyl]carbonyl}amino)tetrahydro-2H-pyran-2-yl]benzoic acid], the midpoint of the response, the EC50, lay at 7.63 µM and the Maximum % activity was determined as 108%.

Consider `COC(=O)c1ccc([C@H]2C[C@@H](NC(=O)C3(c4ccc5c(c4)OC(F)(F)O5)CC3)CCO2)cc1` (racemic) [Example 13, methyl rac-4-[(2R,4S)-4-({[1-(2,2-difluoro-1,3-benzodioxol-5-yl)cyclopropyl]carbonyl}amino)tetrahydro-2H-pyran-2-yl]benzoate], for which the EC50 was 1.16 µM and the Maximum % activity stood at 110%.

For the compound `COC(=O)c1cccc([C@H]2C[C@H](NC(=O)C3(c4ccc5c(c4)OC(F)(F)O5)CC3)C[C@@H](c3ccccc3)O2)c1` (racemic) [Example 22, methyl rac-3-[(2R,4R,6S)-4-({[1-(2,2-difluoro-1,3-benzodioxol-5-yl)cyclopropyl]carbonyl}amino)-6-phenyltetrahydro-2H-pyran-2-yl]benzoate], the EC50 turned out to be 2.18 µM and the Maximum % activity was found to be 63%.

For `COC(=O)c1cccc([C@H]2C[C@@H](NC(=O)C3(c4ccc5c(c4)OC(F)(F)O5)CC3)C[C@@H](c3ccccc3)O2)c1` (racemic) [Example 23, methyl rac-3-[(2R,4S,6S)-4-({[1-(2,2-difluoro-1,3-benzodioxol-5-yl)cyclopropyl]carbonyl}amino)-6-phenyltetrahydro-2H-pyran-2-yl]benzoate], the concentration giving a half-maximal response (EC50) is 0.85 µM and the Maximum % activity worked out at 104%.

For the compound `O=C(O)c1cccc([C@H]2C[C@H](NC(=O)C3(c4ccc5c(c4)OC(F)(F)O5)CC3)C[C@@H](c3ccccc3)O2)c1` (racemic) [Example 25, rac-3-[(2R,4R,6S)-4-({[1-(2,2-difluoro-1,3-benzodioxol-5-yl)cyclopropyl]carbonyl}amino)-6-phenyltetrahydro-2H-pyran-2-yl]benzoic acid], the concentration for a half-maximal effect (EC50) stood at 2.02 µM and the Maximum % activity turned out to be 108%.

As for `COC(=O)c1ccc([C@H]2C[C@H](NC(=O)C3(c4ccc5c(c4)OC(F)(F)O5)CC3)CC(C)(C)O2)cc1` (racemic) [Example 32, methyl rac-4-[(2R,4S)-4-({[1-(2,2-difluoro-1,3-benzodioxol-5-yl)cyclopropyl]carbonyl}amino)-6,6-dimethyltetrahydro-2H-pyran-2-yl]benzoate], the response was half-maximal at 4.12 µM (EC50) and the Maximum % activity amounted to 69%.

Turning to `CC1(C)C[C@@H](NC(=O)C2(c3ccc4c(c3)OC(F)(F)O4)CC2)C[C@H](c2ccc(C(=O)O)cc2)O1` (racemic) [Example 33, rac-4-[(2R,4S)-4-({[1-(2,2-difluoro-1,3-benzodioxol-5-yl)cyclopropyl]carbonyl}amino)-6,6-dimethyltetrahydro-2H-pyran-2-yl]benzoic acid], the EC50 came out at 3.89 µM and the Maximum % activity came to 102%.
